In patent US6482921B1, “Uridyl peptide antibiotic (UPA) derivatives, their synthesis and use” (Essential Therapeutics, Inc., priority 1999, dated 2002):
≈ marks a conversion by molar mass, not a printed value.

Legend:
Format in all cases: cell-based
[1] = system: Pseudomonas aeruginosa PAM 1154; test: MIC broth microdilution, P. aeruginosa PAM 1154 (OprM::Hg); conditions: P. aeruginosa PAM 1154 OprM::Hg
Escherichia Coli MC 4100 = test: MIC broth microdilution, E. coli MC 4100 (wild type); conditions: E. coli MC 4100
[2] = system: Pseudomonas aeruginosa PAM 1020; test: MIC broth microdilution, P. aeruginosa PAM 1020 (wild type); conditions: P. aeruginosa PAM 1020
[3] = system: Escherichia Coli MC 4100 AcrAB; test: MIC broth microdilution, E. coli MC 4100 AcrAB (ΔAcrAB); conditions: E. coli AcrAB
[4] = system: Pseudomonas aeruginosa PAM 1323; test: MIC broth microdilution, P. aeruginosa PAM 1323 (medium level UPA resistance)
[5] = system: Staphylococcus aureus ATCC 29213; test: MIC broth microdilution, S. aureus ATCC 29213 (wild type); conditions: S. aureus ATCC 29213
[6] = system: Pasteurella multocida pm002; test: MIC broth microdilution, P. multocida pm002 (wild type)
[7] = system: Escherichia Coli MC 4100 AcrAB UPA3r; test: MIC broth microdilution, E. coli MC 4100 AcrAB UPA3r (ΔAcrAB, UPA resistant); conditions: E. coli AcrAB UPA3^r
[8] = system: Staphylococcus aureus 8325-4; test: MIC broth microdilution, S. aureus 8325-4 (wild type); conditions: S. aureus 8325-4
[9] = system: Pseudomonas aeruginosa PAM 1135; test: MIC broth microdilution, P. aeruginosa PAM 1135 (high level UPA resistance); conditions: P. aeruginosa PAM 1135 UPA1^r

Compound	MIC (μg/ml) Broth microdilution [1]	MIC (μg/ml) Broth microdilution (Escherichia Coli MC 4100)	MIC (μg/ml) Broth microdilution [2]	MIC (μg/ml) Broth microdilution [3]	MIC (μg/ml) Broth microdilution [4]	MIC (μg/ml) Broth microdilution [5]	MIC (μg/ml) Broth microdilution [6]	MIC (μg/ml) Broth microdilution [7]	MIC (μg/ml) Broth microdilution [8]	MIC (μg/ml) Broth microdilution [9]
C[C@H](N)C(=O)N(C)[C@@H](C)[C@H](NC(=O)[C@H](Cc1ccc(F)c(F)c1)NC(=O)N[C@@H](Cc1c[nH]c2ccccc12)C(=O)O)C(=O)NC[C@H]1C[C@@H](O)[C@H](n2ccc(=O)[nH]c2=O)O1 [Compound 143, 1-[5′-[(2S,3S)-N^3-L-Alanyl-N^2-[N-[[(1S)-1-carboxy-2-indol-3-ylethyl]carbamoyl]-L-(3,4)-difluorophenylalanyl]-N^3-methyl-2,3-diaminobutyramido]-3′,5′-dideoxy-α-L-arabinofuranosyl]uracil]	16 µg/mL (≈ 19.4 µM)	256 µg/mL (≈ 310 µM)	128 µg/mL (≈ 155 µM)	<1 µg/mL	>512 µg/mL	512 µg/mL (≈ 620 µM)	128 µg/mL (≈ 155 µM)	16 µg/mL (≈ 19.4 µM)	256 µg/mL (≈ 310 µM)	>512 µg/mL
C[C@H](N)C(=O)N(C)[C@@H](C)[C@H](NC(=O)[C@H](Cc1ccc(F)c(F)c1)NC(=O)N[C@@H](Cc1ccc(O)cc1)C(=O)O)C(=O)NC[C@H]1C[C@@H](O)[C@H](n2ccc(=O)[nH]c2=O)O1 [Compound 144, 1-[5′-[(2S,3S)-N^3-L-Alanyl-N^2-[N-[[(1S)-1-carboxy-4-hydroxyphenethyl]carbamoyl]-L-(3,4)-difluorophenylalanyl]-N^3-methyl-2,3-diaminobutyramido)-3′,5′-dideoxy-α-L-arabinofuranosyl]uracil]	8 µg/mL (≈ 9.97 µM)	4 µg/mL (≈ 4.98 µM)	64 µg/mL (≈ 79.7 µM)	<1 µg/mL	>512 µg/mL	>512 µg/mL	256 µg/mL (≈ 319 µM)	<1 µg/mL	512 µg/mL (≈ 638 µM)	>512 µg/mL
C[C@H](N)C(=O)N(C)[C@@H](C)[C@H](NC(=O)[C@H](Cc1ccc(C(F)(F)F)cc1)NC(=O)N[C@@H](Cc1ccc(O)cc1)C(=O)O)C(=O)NC[C@H]1C[C@@H](O)[C@H](n2ccc(=O)[nH]c2=O)O1 [Compound 145, 1-[5′-[(2S,3S)-N^3-L-Alanyl-N^2-[N-[[(1S)-1-carboxy-4-hydroxyphenethyl]carbamoyl]-L-4-(trifluoromethyl)phenylalanyl]-N^3-methyl-2,3-diaminobutyramido]-3′,5′-dideoxy-α-L-arabinofuranosyl]uracil]	32 µg/mL (≈ 38.3 µM)	512 µg/mL (≈ 613 µM)	256 µg/mL (≈ 307 µM)	4 µg/mL (≈ 4.79 µM)	>512 µg/mL	>512 µg/mL	512 µg/mL (≈ 613 µM)	128 µg/mL (≈ 153 µM)	>512 µg/mL	>512 µg/mL
CC(N)C(=O)N(C)C(C)C(NC(=O)C(CCCCN)NC(=O)NC(Cc1c[nH]c2ccccc12)C(=O)O)C(=O)NCC1CC(O)C(n2ccc(=O)[nH]c2=O)O1 [Compound 148, 1-[5′-[(2S,3S)-N^3-L-Alanyl-N^2-[N-[[(1S)-1-carboxy-2-indol-3-ylethyl]carbamoyl]-L-lysinyl]-N^3-methyl-2,3-diaminobutyramido]-3′,5′-dideoxy-α-L-arabinofuranosyl]uracil]	8 µg/mL (≈ 10.4 µM)	>512 µg/mL	128 µg/mL (≈ 166 µM)	>512 µg/mL	>512 µg/mL	>512 µg/mL	>512 µg/mL	>512 µg/mL	>512 µg/mL	>512 µg/mL
C[C@H](N)C(=O)N(C)[C@@H](C)[C@H](NC(=O)[C@H](Cc1ccccc1)NC(=O)N[C@@H](Cc1c[nH]cn1)C(=O)O)C(=O)NC[C@H]1C[C@@H](O)[C@H](n2ccc(=O)[nH]c2=O)O1 [Compound 149]	8 µg/mL (≈ 10.8 µM)	512 µg/mL (≈ 691 µM)	512 µg/mL (≈ 691 µM)	16 µg/mL (≈ 21.6 µM)	>512 µg/mL	>512 µg/mL	256 µg/mL (≈ 346 µM)	64 µg/mL (≈ 86.4 µM)	>512 µg/mL	>512 µg/mL
C[C@@H]([C@H](NC(=O)[C@H](Cc1ccccc1)NC(=O)N[C@@H](Cc1ccc(O)cc1)C(=O)O)C(=O)NC[C@H]1C[C@@H](O)[C@H](n2ccc(=O)[nH]c2=O)O1)N(C)C(=O)[C@@H](N)COCc1ccccc1 [Compound 150, 1-[5′-[(2S,3S)-N^3-(L-O-Benzylserinyl)-N^2-[N-[[(1S)-1-carboxy-4-hydroxyphenethyl]carbamoyl]-L-phenylalanyl]-N^3-methyl-2,3-diaminobutyramido]-3′,5′-dideoxy-α-L-arabinofuranosyl]uracil]	64 µg/mL (≈ 73.3 µM)	512 µg/mL (≈ 587 µM)	256 µg/mL (≈ 293 µM)	8 µg/mL (≈ 9.16 µM)	256 µg/mL (≈ 293 µM)	>512 µg/mL	512 µg/mL (≈ 587 µM)	512 µg/mL (≈ 587 µM)	>512 µg/mL	256 µg/mL (≈ 293 µM)
CN[C@@H](C)[C@H](NC(=O)[C@H](Cc1ccccc1)NC(=O)N[C@@H](Cc1c[nH]c2ccccc12)C(=O)O)C(=O)NC[C@H]1C[C@@H](O)[C@H](n2ccc(=O)[nH]c2=O)O1 [Compound 151, 1-[5′-[(2S,3S)-N^2-[N-[[(1S)-1-Carboxy-2-indol-3-ylethyl]carbamoyl]-L-phenylalanyl]-N^3-methyl-2,3-diaminobutyramido]-3′,5′-dideoxy-α-L-arabinofuranosyl]uracil]	32 µg/mL (≈ 44.5 µM)	512 µg/mL (≈ 712 µM)	256 µg/mL (≈ 356 µM)	4 µg/mL (≈ 5.57 µM)	256 µg/mL (≈ 356 µM)	>512 µg/mL	256 µg/mL (≈ 356 µM)	128 µg/mL (≈ 178 µM)	>512 µg/mL	256 µg/mL (≈ 356 µM)
C[C@H](N)C(=O)N(C)[C@@H](C)[C@H](NC(=O)[C@H](Cc1ccc2ccccc2c1)NC(=O)N[C@@H](Cc1ccc(O)cc1)C(=O)O)C(=O)NC[C@H]1C[C@@H](O)[C@H](n2ccc(=O)[nH]c2=O)O1 [Compound 152, 1-[5′-[(2S,3S)-N^3-L-Alanyl-N^2-[N-[[(1S)-1-carboxy-4-hydroxyphenethyl)carbamoyl]-L-3-(2-naphthyl)alanyl]-N^3-methyl-2,3-diaminobutyramido]-3′,5′-dideoxy-α-L-arabinofuranosyl]uracil]	64 µg/mL (≈ 78.3 µM)	256 µg/mL (≈ 313 µM)	256 µg/mL (≈ 313 µM)	2 µg/mL (≈ 2.45 µM)	>512 µg/mL	>512 µg/mL	>512 µg/mL	64 µg/mL (≈ 78.3 µM)	>512 µg/mL	>512 µg/mL
C[C@H](N)C(=O)N(C)[C@@H](C)[C@H](NC(=O)[C@H](Cc1ccc2ccccc2c1)NC(=O)N[C@@H](Cc1c[nH]c2ccccc12)C(=O)O)C(=O)NC[C@H]1C[C@@H](O)[C@H](n2ccc(=O)[nH]c2=O)O1 [Compound 153]	16 µg/mL (≈ 19 µM)	512 µg/mL (≈ 610 µM)	128 µg/mL (≈ 152 µM)	2 µg/mL (≈ 2.38 µM)	>512 µg/mL	512 µg/mL (≈ 610 µM)	64 µg/mL (≈ 76.2 µM)	128 µg/mL (≈ 152 µM)	256 µg/mL (≈ 305 µM)	>512 µg/mL
CC(C)CC(NC(=O)NC(Cc1ccc(O)cc1)C(=O)O)C(=O)NC(C(=O)NCC1CC(O)C(n2ccc(=O)[nH]c2=O)O1)C(C)N(C)C(=O)C(C)N [Compound 161, 1-[5′-[(2S,3S)-N^3-L-Alanyl-N^2-[N-[[(1S)-1-carboxy-4-hydroxyphenethyl)carbamoyl]-L-leucyl]-N^3-methyl-2,3-diaminobutyramido]-3′,5′-dideoxy-α-L-arabinofuranosyl]uracil]	8 µg/mL (≈ 10.9 µM)	>512 µg/mL	16 µg/mL (≈ 21.8 µM)	32 µg/mL (≈ 43.7 µM)	256 µg/mL (≈ 349 µM)	>512 µg/mL	512 µg/mL (≈ 699 µM)	256 µg/mL (≈ 349 µM)	>512 µg/mL	>512 µg/mL
